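48-hour exposure; five concentrations; linearly interpolated endpoints. GI50: concentration for 50% inhibition of growth.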 Active and inactive are the calls of the source. No stated cut-off is given here; in the data, active = GI50 up to about 1.1 µM and inactive = higher.
How the values were obtained:
Test in all cases: NCI anticancer screen, dose series, 48 h
[1] = test system: COLO 205
[2] = test system: HCT-116
[3] = test system: HOP-62
[4] = test system: HOP-92
[5] = test system: K562
[6] = test system: KM12
[7] = test system: LOX IMVI
[8] = test system: NCI-H226
[9] = test system: NCI-H460
[10] = test system: NCI-H522
[11] = test system: OVCAR-3
[12] = test system: OVCAR-4
[13] = test system: SF-539
[14] = test system: SK-MEL-2
[15] = test system: SNB-19
[16] = test system: SR
[17] = test system: DU-145
[18] = test system: NCI/ADR-RES
[19] = test system: PC-3
[20] = test system: MDA-MB-435

Measured: GI50

Cc1cccc2[s+]snc12
inactive: [1] 23.9 µM | [2] > 59.4 µM | [3] > 100 µM | [4] 23.1 µM | [5] 24.9 µM | [6] > 100 µM | [7] 49.5 µM | [8] > 100 µM | [9] > 100 µM | [10] 18.4 µM | [11] 30.1 µM | [12] > 100 µM | [13] > 100 µM | [14] > 100 µM | [15] > 100 µM | [16] 31.3 µM

O=C(/C=C/c1ccccc1Cl)c1ccc(Cl)c(Cl)c1
inactive: [1] > 100 µM | [2] 11.5 µM | [3] 23 µM | [4] 26.9 µM | [5] 26.8 µM | [6] 15.8 µM | [7] 14.6 µM | [8] > 100 µM | [9] 34.5 µM | [10] 17.3 µM | [11] 15.4 µM | [12] 12.9 µM | [13] 18.2 µM | [14] 18 µM | [15] 16.4 µM | [16] 21.7 µM

CC1C2(C)OC(=N)C(C#N)(C(c3ccco3)O2)C1(C#N)C#N (configuration not stated)
inactive: [1] 13.6 µM | [17] 31 µM | [2] 26.7 µM | [4] 22.3 µM | [5] 34.9 µM | [6] 59.8 µM | [7] 19.2 µM | [8] > 100 µM | [9] 19.3 µM | [18] > 100 µM | [11] 21.3 µM | [19] 36.6 µM | [13] 19.5 µM | [14] 29.4 µM | [15] 42.5 µM

CC1(C)CC(=O)C(C(=O)Nc2cccs2)=C(O)C1
inactive: [1] 19.6 µM | [2] 29.7 µM | [3] 34.8 µM | [4] 27.6 µM | [5] 28.1 µM | [6] 38.1 µM | [7] 32.3 µM | [8] 23.4 µM | [9] 35.9 µM | [10] 37.2 µM | [11] 29.4 µM | [12] 31.1 µM | [13] 36.2 µM | [14] 35.9 µM | [15] 31.1 µM | [16] 29.9 µM

Cc1ccc(S(=O)(=O)Nn2c(-c3ccccc3)c(C#N)c(-c3ccc(Cl)cc3)c(C#N)c2=O)cc1
inactive: [1] 24.5 µM | [2] 18.9 µM | [3] 30.1 µM | [4] 19.5 µM | [5] 33.7 µM | [7] 21.4 µM | [20] 33.3 µM | [9] 27.9 µM | [12] 38.8 µM | [19] 26.2 µM | [13] 21.1 µM | [14] 20.2 µM | [15] 31.2 µM

COc1cccc(/C=N/n2c(C)n[nH]c2=O)c1
inactive: [1] > 100 µM | [2] > 100 µM | [3] 80.7 µM | [5] > 100 µM | [6] > 100 µM | [20] > 100 µM | [8] 95.1 µM | [9] > 100 µM | [18] > 100 µM | [11] 25.9 µM | [12] > 100 µM | [19] > 100 µM | [13] > 100 µM | [14] > 100 µM | [15] > 100 µM

[N-]=[N+]=CC(=O)OC1CCc2ccccc21 (configuration not stated)
inactive: [1] 73.1 µM | [17] 12.8 µM | [2] > 100 µM | [3] 55.2 µM | [4] 44.6 µM | [5] > 100 µM | [7] > 100 µM | [20] > 100 µM | [8] > 100 µM | [9] 47.8 µM | [10] > 100 µM | [11] > 100 µM | [12] > 100 µM | [19] > 100 µM | [14] > 100 µM | [15] > 100 µM | [16] > 100 µM

CN1Cc2cc3cc4c(cc3nc2N(C)C1)OCCO4
inactive: [1] > 100 µM | [2] > 100 µM | [3] > 100 µM | [4] > 100 µM | [5] > 100 µM | [6] > 100 µM | [7] > 100 µM | [20] > 100 µM | [8] > 100 µM | [9] > 100 µM | [10] > 100 µM | [18] > 100 µM | [12] > 100 µM | [19] > 100 µM | [13] > 100 µM | [14] > 100 µM | [15] > 100 µM

CSc1nc(Cl)c(Br)c(Sc2nc(N)nc3nc[nH]c23)n1
inactive: [1] 15.7 µM | [2] 2.84 µM | [3] 2 µM | [4] 7.28 µM | [5] 3.34 µM | [6] 5.18 µM | [8] 10.5 µM | [9] 5.07 µM | [10] 1.63 µM | [11] 15.2 µM | [12] 11 µM | [13] 2.81 µM | [14] 4.78 µM | [15] 16.6 µM | [16] 3.48 µM

CC(C)=CCC/C(C)=C/CCC1(C)C2COC(=O)C21 (configuration not stated)
inactive: [1] 48.3 µM | [17] 60.5 µM | [2] 31.9 µM | [3] > 100 µM | [4] 18.2 µM | [5] 22.6 µM | [6] 34.9 µM | [7] 26.7 µM | [20] 65.5 µM | [8] > 100 µM | [9] 36.2 µM | [10] 53.2 µM | [11] 37 µM | [12] 42.8 µM | [19] 44.4 µM | [14] 70.5 µM | [15] 82.8 µM | [16] 37 µM

Cc1c(C(=O)O)c2cc3ccccc3cc2c(=O)n1C
inactive: [4] > 10 µM | [6] > 10 µM | [7] > 10 µM | [20] > 10 µM | [8] > 10 µM | [9] > 10 µM | [10] > 10 µM | [18] > 10 µM | [11] > 10 µM | [12] > 10 µM | [19] > 10 µM | [13] > 10 µM | [14] > 10 µM | [15] > 10 µM | [16] > 10 µM

COc1ccc(CN2C(=O)[C@@H]3Cc4c(OC)c(C)c(OC)c(OC)c4[C@H](/C2=C\c2cc(OC)c(OC)c(C)c2OC)N3C(=O)OC(C)C)cc1
inactive: [1] 12.4 µM | [2] 9.66 µM | [3] 65 µM | [4] 8.04 µM | [5] 25.3 µM | [6] > 100 µM | [7] 43 µM | [8] 5.57 µM | [9] 15.8 µM | [10] 8.75 µM | [11] 99.1 µM | [12] 50.7 µM | [13] > 100 µM | [14] 91.8 µM | [15] > 100 µM | [16] 6.53 µM

COc1cccc(Nc2nc(C)c([N+](=O)[O-])c(Nc3cccc(OC)c3)n2)c1
inactive: [1] 13.9 µM | [17] 9.79 µM | [2] 26.6 µM | [3] 12.1 µM | [4] 6.08 µM | [5] 8.65 µM | [7] 16.1 µM | [8] 40.8 µM | [9] 3.95 µM | [10] 8.18 µM | [18] 2.92 µM | [11] 12.9 µM | [19] 12.4 µM | [13] 29 µM | [14] 15.9 µM | [15] 89.1 µM | [16] 7.76 µM

COc1ccc2c(c1)CCC1C3(CCCC21C)OCCO3 (configuration not stated)
inactive: [1] 17.9 µM | [2] 16.8 µM | [3] 13.8 µM | [4] 15.1 µM | [5] 15.4 µM | [6] 20.3 µM | [7] 15.9 µM | [8] 17.4 µM | [9] 16.3 µM | [10] 15.7 µM | [11] 16.1 µM | [12] 29.4 µM | [13] 12.9 µM | [14] 4.7 µM | [15] 28.9 µM | [16] 20.4 µM

O=C(CC1(O)C(=O)Nc2c(Cl)cc(Cl)cc21)c1ccc(Br)cc1 (configuration not stated)
inactive: [1] > 40.7 µM | [2] 17.5 µM | [3] 20.2 µM | [4] 15.7 µM | [5] 24.5 µM | [6] 15.2 µM | [7] 22.5 µM | [8] 14.9 µM | [9] 38.6 µM | [10] 16.6 µM | [11] 14.1 µM | [12] 12.4 µM | [13] 16.3 µM | [14] > 41.1 µM | [15] 16.3 µM | [16] 19.8 µM

COC(=O)C1C(=O)NC2(C)CC1c1ccccc1O2 (configuration not stated)
inactive: [2] > 100 µM | [3] > 10 µM | [4] > 100 µM | [5] > 100 µM | [6] > 100 µM | [7] > 100 µM | [8] > 100 µM | [9] > 100 µM | [10] > 100 µM | [11] > 10 µM | [12] > 100 µM | [13] > 100 µM | [14] > 100 µM | [15] > 100 µM | [16] > 100 µM

CC(=O)C1C(=O)C(=O)N(c2cccc(C)c2C)C1=O (configuration not stated)
inactive: [1] > 100 µM | [17] > 100 µM | [2] > 100 µM | [3] > 100 µM | [4] > 100 µM | [6] > 100 µM | [7] > 100 µM | [8] > 100 µM | [18] > 100 µM | [11] > 100 µM | [19] > 100 µM | [13] > 100 µM | [14] > 100 µM | [15] > 100 µM

From ChEMBL document CHEMBL1201862, “PubChem BioAssay data set” (2004)
